From patent US6737383B1, “Herbicidal oxadiazolidines” (priority 1999, dated 2004)

What was measured:
wild oat = experiment: Test B pre/postemergence wild oat; assay type: in vivo, Avena fatua
Procedure, shortened: (§1)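 Response is a visual 0-to-10 score relative to untreated plants, where 0 means no effect and 10 means complete control, taken twelve to sixteen days after application. Treatments went onto soil at planting and onto foliage of 1- to 4-leaf plants, using a surfactant-containing non-phytotoxic solvent.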

corn = experiment: Test B pre/postemergence corn; assay type: in vivo, Zea mays
Procedure, shortened: as §1

sugar beet = experiment: Test B pre/postemergence sugar beet; assay type: in vivo, Beta vulgaris
Procedure, shortened: as §1

morningglory = experiment: Test B pre/postemergence morningglory; assay type: in vivo, Ipomoea hederacea
Procedure, shortened: as §1

velvetleaf = experiment: Test B pre/postemergence velvetleaf; assay type: in vivo, Abutilon theophrasti
Procedure, shortened: as §1

rape = experiment: Test B pre/postemergence rape; assay type: in vivo, Brassica napus
Procedure, shortened: as §1

duck salad = experiment: Test B flood test duck salad; assay type: in vivo, Heteranthera limosa
Procedure, shortened: (§2)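 Plants were grown to the 2-leaf stage before treatment with test chemical, then held in a greenhouse for twelve to sixteen days. Injury was visually rated against untreated controls on a 0–10 scale, where 0 is no effect and 10 is complete control.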

bamyardgrass = experiment: Test B flood test barnyardgrass; assay type: in vivo, Echinochloa crus-galli
Procedure, shortened: as §2

smallflower flatsedge = experiment: Test B flood test smallflower flatsedge; assay type: in vivo, Cyperus difformis
Procedure, shortened: as §2

surinam grass = experiment: Test B pre/postemergence surinam grass; assay type: in vivo, Brachiaria decumbens
Procedure, shortened: as §1

pigweed = experiment: Test B pre/postemergence pigweed; assay type: in vivo, Amaranthus retroflexus
Procedure, shortened: as §1

bedstraw = experiment: Test B pre/postemergence bedstraw; assay type: in vivo, Galium aparine; conditions: Preemergence
Procedure, shortened: as §1

crabgrass = experiment: Test B pre/postemergence crabgrass; assay type: in vivo, Digitaria sanguinalis
Procedure, shortened: as §1

soybean = experiment: Test B pre/postemergence soybean; assay type: in vivo, Glycine max; conditions: for Plant response rating, Soybean: Rate 500 g/ha
Procedure, shortened: as §1

cocklebur = experiment: Test B pre/postemergence cocklebur; assay type: in vivo, Xanthium strumarium
Procedure, shortened: as §1

blackgrass = experiment: Test B pre/postemergence blackgrass; assay type: in vivo, Alopecurus myosuroides
Procedure, shortened: as §1

giant foxtail = experiment: Test B pre/postemergence giant foxtail; assay type: in vivo, Setaria faberii
Procedure, shortened: as §1

rice = experiment: Test B flood test rice; assay type: in vivo, Oryza sativa
Procedure, shortened: as §2

wheat = experiment: Test B pre/postemergence wheat; assay type: in vivo, Triticum aestivum
Procedure, shortened: as §1

purple nutsedge = experiment: Test B pre/postemergence purple nutsedge; assay type: in vivo, Cyperus rotundus
Procedure, shortened: as §1

[1] = Postemergence, Rate 125 g/ha, scale of 0 to 10 where 0 is no effect and 10 is complete control
[2] = Postemergence, Rate 250 g/ha, scale of 0 to 10, 0 is no effect, 10 is complete control
[3] = Postemergence, Rate 500 g/ha, scale of 0 to 10 where 0 is no effect and 10 is complete control
[4] = Preemergence, Rate 62 g/ha, scale 0 to 10 (0 no effect, 10 complete control)
[5] = Preemergence, Rate 125 g/ha, scale of 0 to 10 where 0 is no effect and 10 is complete control
[6] = Preemergence, Rate 500 g/ha, scale of 0 to 10 where 0 is no effect and 10 is complete control
[7] = Postemergence, Rate 62 g/ha, scale of 0 to 10, 0 is no effect, 10 is complete control
[8] = Rate 62 g/ha, flood test species, Pre-emergence, visual evaluation after twelve to sixteen days
[9] = Rate 125 g/ha, under heading Pre-emergence, flood test species, visual evaluation after twelve to sixteen days
[10] = Rate 250 g/ha, Pre-emergence (flood test species), scale 0 to 10, 0 is no effect, 10 is complete control
[11] = Rate 500 g/ha, Pre-emergence section of Table B, 0 to 10 scale (0 no effect, 10 complete control)

Compound: CC(C)N(C(=O)n1oc(=O)n(C(CF)CF)c1=O)c1ccc(F)cc1F [Compound 595]
- Plant response rating, Wild oats (wild oat; [1]): 0
- Wild oats plant response rating (wild oat; [2]): 2
- Plant response rating, Wild oats (wild oat; [3]): 4
- Wild oats plant response rating (wild oat; [4]): 3
- Wild oats plant response rating (wild oat; [5]): 8
- Plant response rating, Wild oats (wild oat; [6]): 9
- Corn plant response rating (corn; [7]): 0
- Plant response rating, Corn (corn; [1]): 0
- Corn plant response rating (corn; [2]): 2
- Plant response rating, Corn (corn; [3]): 3
- Corn plant response rating (corn; [4]): 0
- Corn plant response rating (corn; [5]): 0
- Corn plant response rating (0 to 10 scale) (corn; Preemergence, Rate 250 g/ha): 4
- Plant response rating, Corn (corn; [6]): 6
- Plant response rating, Sugarbeets (sugar beet; [1]): 3
- Sugarbeets plant response rating (sugar beet; [2]): 3
- Plant response rating, Sugarbeets (sugar beet; [3]): 3
- Sugarbeets plant response rating (sugar beet; [4]): 6
- Sugarbeets plant response rating (sugar beet; [5]): 8
- Plant response rating, Sugarbeets (sugar beet; [6]): 9
- Morningglory plant response rating (morningglory; [7]): 1
- Plant response rating, Morningglory (morningglory; [1]): 2
- Morningglory plant response rating (morningglory; [2]): 3
- Plant response rating, Morningglory (morningglory; [3]): 6
- Morningglory plant response rating (morningglory; [4]): 0
- Morningglory plant response rating (morningglory; [5]): 0
- Plant response rating, Morningglory (morningglory; [6]): 6
- Plant response rating, Velvetleaf (velvetleaf; [1]): 4
- Velvetleaf plant response rating (velvetleaf; [2]): 7
- Plant response rating, Velvetleaf (velvetleaf; [3]): 7
- Velvetleaf plant response rating (velvetleaf; [4]): 7
- Velvetleaf plant response rating (velvetleaf; [5]): 7
- Plant response rating, Velvetleaf (velvetleaf; [6]): 9
- Rape plant response rating (rape; [7]): 0
- Plant response rating, Rape (rape; [1]): 0
- Rape plant response rating (rape; [2]): 2
- Plant response rating, Rape (rape; [3]): 2
- Rape plant response rating (rape; [4]): 4
- Rape plant response rating (rape; [5]): 4
- Plant response rating, Rape (rape; [6]): 10
- Plant response rating, Ducksalad (0 to 10 scale, 0 is no effect, 10 is complete control) (duck salad; [8]): 0
- Ducksalad plant response rating (0 to 10 scale, 0 is no effect, 10 is complete control) (duck salad; [9]): 0
- Ducksalad plant response rating (duck salad; [10]): 0
- Ducksalad plant response rating (duck salad; [11]): 0
- Plant response rating, Barnyardgrass (0 to 10 scale, 0 is no effect, 10 is complete control) (bamyardgrass; [8]): 0
- Barnyardgrass plant response rating (0 to 10 scale, 0 is no effect, 10 is complete control) (bamyardgrass; [9]): 0
- Barnyardgrass plant response rating (bamyardgrass; [10]): 0
- Barnyardgrass plant response rating (bamyardgrass; [11]): 0
- Plant response rating, S. Flatsedge (0 to 10 scale, 0 is no effect, 10 is complete control) (smallflower flatsedge; [8]): 0
- S. Flatsedge plant response rating (0 to 10 scale, 0 is no effect, 10 is complete control) (smallflower flatsedge; [9]): 0
- S. Flatsedge plant response rating (smallflower flatsedge; [10]): 0
- S. Flatsedge plant response rating (smallflower flatsedge; [11]): 0
- B. signalgrass plant response rating (surinam grass; [7]): 0
- Plant response rating, B. signalgrass (surinam grass; [1]): 0
- B. signalgrass plant response rating (surinam grass; [2]): 6
- Plant response rating, B. signalgrass (surinam grass; [3]): 6
- B. signalgrass plant response rating (surinam grass; [4]): 2
- B. signalgrass plant response rating (surinam grass; [5]): 6
- B. signalgrass plant response rating (0 to 10 scale, 0 is no effect, 10 is complete control) (surinam grass; Preemergence, Rate 250 g/ha): 7
- B. signalgrass plant response rating (surinam grass; [6]): 9
- Plant response rating, Redroot pigweed (pigweed; [1]): 0
- Redroot pigweed plant response rating (pigweed; [2]): 3
- Plant response rating, Redroot pigweed (pigweed; [3]): 7
- Redroot pigweed plant response rating (pigweed; [4]): 0
- Redroot pigweed plant response rating (pigweed; [5]): 10
- Plant response rating, Redroot pigweed (pigweed; [6]): 10
- Bedstraw plant response rating (bedstraw; Rate 62 g/ha, scale 0 to 10 (0 no effect, 10 complete control)): 0
- Bedstraw plant response rating (bedstraw; Rate 125 g/ha, scale of 0 to 10 where 0 is no effect and 10 is complete control): 8
- Bedstraw plant response rating (bedstraw; Rate 500 g/ha, scale of 0 to 10 where 0 is no effect and 10 is complete control): 10
- Crabgrass plant response rating (crabgrass; [7]): 5
- Plant response rating, Crabgrass (crabgrass; [1]): 8
- Crabgrass plant response rating (crabgrass; [2]): 9
- Plant response rating, Crabgrass (crabgrass; [3]): 9
- Crabgrass plant response rating (crabgrass; [4]): 7
- Crabgrass plant response rating (crabgrass; [5]): 9
- Plant response rating, Crabgrass (crabgrass; [6]): 10
- Soybean plant response rating (soybean; [2]): 4
- Plant response rating, Soybean (soybean; Postemergence, scale of 0 to 10 where 0 is no effect and 10 is complete control): 4
- Soybean plant response rating (soybean; [4]): 0
- Soybean plant response rating (soybean; [5]): 1
- Plant response rating, Soybean (soybean; Preemergence, scale of 0 to 10 where 0 is no effect and 10 is complete control): 4
- Cocklebur plant response rating (cocklebur; [7]): 0
- Plant response rating, Cocklebur (cocklebur; [1]): 0
- Cocklebur plant response rating (cocklebur; [2]): 0
- Plant response rating, Cocklebur (cocklebur; [3]): 2
- Cocklebur plant response rating (cocklebur; [5]): 0
- Cocklebur plant response rating (0 to 10 scale) (cocklebur; Preemergence, Rate 250 g/ha): 0
- Plant response rating, Cocklebur (cocklebur; [6]): 0
- Blackgrass plant response rating (blackgrass; [7]): 3
- Plant response rating, Blackgrass (blackgrass; [1]): 7
- Blackgrass plant response rating (blackgrass; [2]): 9
- Plant response rating, Blackgrass (blackgrass; [3]): 9
- Blackgrass plant response rating (blackgrass; [4]): 6
- Blackgrass plant response rating (blackgrass; [5]): 9
- Blackgrass plant response rating (0 to 10 scale) (blackgrass; Preemergence, Rate 250 g/ha): 10
- Blackgrass plant response rating (blackgrass; [6]): 10
- Giant foxtail plant response rating (giant foxtail; [7]): 8
- Plant response rating, Giant foxtail (giant foxtail; [1]): 9
- Giant foxtail plant response rating (giant foxtail; [2]): 9
- Plant response rating, Giant foxtail (giant foxtail; [3]): 9
- Giant foxtail plant response rating (giant foxtail; [4]): 10
- Giant foxtail plant response rating (giant foxtail; [5]): 10
- Plant response rating, Giant foxtail (giant foxtail; [6]): 9
- Plant response rating, Rice (0 to 10 scale, 0 is no effect, 10 is complete control) (rice; [8]): 0
- Rice plant response rating (0 to 10 scale, 0 is no effect, 10 is complete control) (rice; [9]): 0
- Rice plant response rating (rice; [10]): 0
- Rice plant response rating (rice; [11]): 0
- Plant response rating, Wheat (wheat; [1]): 0
- Wheat plant response rating (wheat; [2]): 2
- Plant response rating, Wheat (wheat; [3]): 3
- Wheat plant response rating (wheat; [4]): 0
- Wheat plant response rating (wheat; [5]): 1
- Plant response rating, Wheat (wheat; [6]): 6
- Nutsedge plant response rating (purple nutsedge; [7]): 0
- Plant response rating, Nutsedge (purple nutsedge; [1]): 0
- Nutsedge plant response rating (purple nutsedge; [2]): 0
- Plant response rating, Nutsedge (purple nutsedge; [3]): 5
- Nutsedge plant response rating (purple nutsedge; [5]): 3
- Plant response rating, Nutsedge (purple nutsedge; [6]): 4
